Molecules are shown by their SMILES.

As a reminder, the IC50 is the point on the concentration scale where inhibition reaches its midpoint.

This assay deals with T1, PTP1B (recombinant human GST-PTP1B) (Homo sapiens, UniProt P18031).
T1 sequence (P18031 1-435): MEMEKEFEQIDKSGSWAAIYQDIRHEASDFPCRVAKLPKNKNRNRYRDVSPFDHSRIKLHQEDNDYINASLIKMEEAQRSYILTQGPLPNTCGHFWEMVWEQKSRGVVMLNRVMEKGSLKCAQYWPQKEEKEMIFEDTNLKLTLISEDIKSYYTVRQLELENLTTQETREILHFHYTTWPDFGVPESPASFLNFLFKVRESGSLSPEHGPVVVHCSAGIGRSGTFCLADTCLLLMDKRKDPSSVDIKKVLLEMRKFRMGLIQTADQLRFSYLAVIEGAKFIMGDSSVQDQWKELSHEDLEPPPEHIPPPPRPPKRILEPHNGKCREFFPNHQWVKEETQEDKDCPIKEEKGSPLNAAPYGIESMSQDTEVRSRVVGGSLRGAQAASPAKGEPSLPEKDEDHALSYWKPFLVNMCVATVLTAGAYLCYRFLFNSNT
The assay is described as follows: pNPP hydrolysis, absorbance […] nm. In kind it is biochemical.
With `COc1ccc(CC(=O)Nc2ccc(NC(=O)c3ccc(/C=C/C(=O)c4ccc(OC)cc4)cc3)cc2)cc1` [compound 28, (E)-4-(3-(4-Methoxyphenyl)-3-oxoprop-1-en-1-yl)-N-(4-(2-(4-methoxyphenyl)acetamido)phenyl)benzamide], the IC50 turned out to be 5.91 µM.

With `O=C(/C=C/c1ccc(C(=O)Nc2ccc(C(=O)Nc3ccccc3)cc2)cc1)c1ccc(F)cc1` [compound 9, (E)-4-(3-(4-Fluorophenyl)-3-oxoprop-1-en-1-yl)-N-(4-(phenylcarbamoyl)phenyl)benzamide], the concentration for half-maximal inhibition (IC50) came out at 8.81 µM.

As to `COc1ccc(C(=O)CCc2ccc(C(=O)Nc3cccc(C(=O)Nc4cc(OC)cc(OC)c4)c3)cc2)cc1` [compound 33, N-(3,5-Dimethoxyphenyl)-3-(4-(3-(4-methoxyphenyl)-3-oxopropyl)benzamido)benzamide], the half-maximal inhibitory concentration (IC50) came to 24.3 µM.

Consider `CN(C)c1ccc(C(=O)CCc2ccc(C(=O)Nc3ccc(C(=O)Nc4ccccc4)cc3)cc2)cc1` [compound 4, 4-(3-(4-(Dimethylamino)phenyl)-3-oxopropyl)-N-(4-(phenylcarbamoyl)phenyl)benzamide], for which the concentration for half-maximal inhibition (IC50) was 4.9 µM.

`COc1ccc(C(=O)NCc2ccc(C(=O)Nc3ccc(C(=O)Nc4ccccc4)cc3)cc2)cc1` [compound 18, 4-Methoxy-N-(4-((4-(phenylcarbamoyl)phenyl)carbamoyl)benzyl)benzamide]: the IC50 amounted to 8.16 µM.

Consider `COc1ccc(CC(=O)Nc2ccc(NC(=O)c3ccc(CCC(=O)c4ccc(OC)cc4)cc3)cc2)cc1` [compound 27, 4-(3-(4-Methoxyphenyl)-3-oxopropyl)-N-(4-(2-(4-methoxyphenyl)acetamido)phenyl)benzamide], for which the IC50 is 4.19 µM.

`COc1ccc(/C=C/C(=O)c2ccc(C(=O)Nc3ccc(NC(=O)Cc4ccc(OC)cc4)cc3)cc2)cc1` [compound 29, (E)-N-(4-(2-(4-Methoxyphenyl)acetamido)phenyl)-4-(3-(4-methoxyphenyl)acryloyl)benzamide]: the IC50 is 4.7 µM.

As to `Cc1ccc(C(=O)/C=C/c2ccc(C(=O)Nc3ccc(C(=O)Nc4ccccc4)cc3)cc2)cc1` [compound 10, (E)-4-(3-Oxo-3-(p-tolyl)prop-1-en-1-yl)-N-(4-(phenylcarbamoyl)phenyl)benzamide], the half-maximal inhibitory concentration (IC50) stood at 5.23 µM.

For `COc1ccc(C(=O)NCc2ccc(C(=O)Nc3ccc(NC(=O)c4ccccc4)cc3)cc2)cc1` [compound 31, N-(4-Benzamidophenyl)-4-((4-methoxybenzamido)methyl)benzamide], the concentration for half-maximal inhibition (IC50) came out at 6.22 µM.

For `COc1ccc(C(=O)NCc2ccc(C(=O)Nc3ccc(C(=O)Nc4ccccc4OC)cc3)cc2)cc1` [compound 23, 4-Methoxy-N-(4-((4-((2-methoxyphenyl)carbamoyl)phenyl)carbamoyl)benzyl)benzamide], the IC50 was found to be 4.76 µM.

Consider `COc1ccc(/C=C/C(=O)c2ccc(C(=O)Nc3ccc(C(=O)Nc4ccccc4)cc3)cc2)cc1` [compound 15, (E)-4-(3-(4-Methoxyphenyl)acryloyl)-N-(4-(phenylcarbamoyl)phenyl)benzamide], for which the IC50 was 7.74 µM.

With `COc1ccc(C(=O)CCc2ccc(C(=O)Nc3ccc(C(=O)Nc4ccc(N5CCOCC5)cc4)cc3)cc2)cc1` [compound 8, 4-(3-(4-Methoxyphenyl)-3-oxopropyl)-N-(4-((4-morpholinophenyl)carbamoyl)phenyl)benzamide], the concentration for half-maximal inhibition (IC50) worked out at 7.26 µM.

As to `COc1ccc(C(=O)NCc2ccc(C(=O)Nc3ccc(C(=O)Nc4ccc(N5CCOCC5)cc4)cc3)cc2)cc1` [compound 20, 4-Methoxy-N-(4-((4-((4-morpholinophenyl)carbamoyl)phenyl)carbamoyl)benzyl)benzamide], the IC50 amounted to 6.85 µM.

Source of the values: PMC6251817 (Acta Pharmaceutica Sinica. B, 2018).
